Here are results for three compounds from patent US12195551B2, “Combination of an ErbB-2/ErbB-3 bispecific antibody with endocrine therapy for breast cancer” (Merus N.V., priority 2017, dated 2025).

Each structure is given as a SMILES string. Some results are limits rather than exact numbers.

The test system of assay [1] is HBCx-34 PDX model. The note with it: model characterisation; cited from earlier work.
For assay [2], the system named is MCF-7 human breast carcinoma. In words: Efficacy in nude mouse xenograft model of MCF-7 human breast carcinoma. The format is in vivo. As to the method: MCLA-128 was evaluated as monotherapy and in combination with the SERM Tamoxifen and SERD Fulvestrant (Faslodex®) for efficacy in a nude mouse xenograft model of estrogen responsive MCF-7 human breast carcinoma. The study design also included tumor collection for downstream analysis.
Treatments began on D1 in mice with established subcutaneous MCF-7 tumors. The study endpoint was intended to be a tumor volume endpoint of 1000 mm3 45 days, whichever came first. […] Tumor regressions, mean tumor growth, and treatment tolerability also were considered.
The animals were fed ad libitum water (reverse osmosis, 1 ppm Cl) and NIH 31 Modified and Irradiated Lab Diet® consisting of 18.0% crude protein, 6.0% crude fat, and 5.0% crude fiber. The mice were housed on irradiated Enrich-o'Cobs™ Laboratory Animal Bedding in static 85 microisolators on a 12-hour light cycle at […] (68-72° F.) and 40-60% humidity.
Three days prior to tumor cell implantation, estrogen pellets (0.36 mg estradiol, 60-day release, Innovative Research of America, Sarasota, FL) were implanted subcutaneously between the scapulae of all test animals using a sterilized trocar.
Xenografts were initiated with cultured MCF-7 human breast carcinoma cells. Tumor cells were grown to mid-log phase in RPMI-1640 medium containing 10% fetal bovine serum, 100 units/mL penicillin G, 100 μg/mL streptomycin sulfate, 2 mM glutamine, 10 mM HEPES, 0.075% sodium bicarbonate and 25 μg/mL gentamicin. On the day of tumor cell implant, the cells were trypsinized, pelleted, and resuspended in phosphate buffered saline (PBS) at a concentration of 1×10e8 cells/mL. Each test mouse received 1×10e7 MCF-7 cells implanted subcutaneously in the right flank, and tumor growth was monitored as their mean volume approached the desired 100 to 150 mm3 range.
Nineteen days after tumor cell implantation, designated as D1 of the study, the mice were placed into six groups of 15 animals and four groups of six animals, Individual tumor volumes ranged from 75 to 196 mm3 and group mean tumor volumes of 134-137 mm3 on D1. Tumor weight was estimated with the assumption that 1 mg is equivalent to 1 mm3 of tumor volume.
MCLA-128 was stored at 4° C., was provided pre-formulated at 2.5 mg/mL and ready to dose as 25 mg/kg in a 10 mL/kg dose volume, and was protected from light during storage and handling. Tamoxifen (Sigma-25 Aldrich. Lot No. WXBB5732V) was received as a powder and was stored at 4° C. protected from light. Each week, a 5 mg/mL dose solution was prepared in corn oil, and each mouse received 0.2 mL for a dose of 1 mg/animal. The dose solution was stored at 4° C. Fulvestrant tradename Faslodex® (AstraZeneca, Lot No. LV032, LW466, and LX432) was received as 50 mg/mL stock solution that was stored at 4° C. Each dosing day, the stock was diluted in corn oil to 25 mg/mL, and each mouse received 0.2 mL for a dose of 5 mg/animal.
Groups 1 and 7 served as controls for efficacy and sampling, respectively, and received MCLA-128 vehicle intraperitoneally (i.p.) on D1, 4, 8, 11, 15, 18, 22, 25, and 29 and corn oil subcutaneously (s.c.) every other day for fifteen doses (qod×15). Groups 2 and 8 were administered MCLA-128 at 25 mg/kg, i.p., on the same schedule as MCLA-128 vehicle. Groups 3 and 9 were administered Faslodex® at 5.0 mg/animal, s.c., once weekly for five weeks (qwk×5). Group 4 was administered Tamoxifen at 1 mg/animal, s.c., qod×15. Groups 5 and 10 received MCLA-128 and Faslodex®, on the regimens described above. Group 6 received MCLA-128 and Tamoxifen on the regimens described above.
MCLA-128 was administered at a 10 mL/kg dose volume, scaled to the individual body weight of each animal.

Assay [3] deals with HER2. The experiment in a line: Reverse phase protein array (RPPA) in MCF-7 tumor xenografts: HER2. As to conditions: vs vehicle group, one-way ANOVA. The format is in vivo, human. An excerpt: FIG. 9. Reverse phase protein array (RPPA) in MCF-7 tumor xenografts treated with vehicle, MCLA-128, Fulvestrant, Tamoxifen, MCLA-128+ Fulvestrant or MCLA-128+ Tamoxifen. Proteins detected in this assay included (phospho)-Akt and (phospho)-HER3 (full data provided in Appendix 4). One-way ANOVA compared levels in all tumors derived from treatment groups with those derived from the PBS group. ** indicates P<0.01.
Tumors from groups 1-6 were collected when they had reached the maximum tolerated volume, or at the end of the experiment at day 39, which was 10 days after the last dose. Per treatment group, six tumors were included in the Reverse phase protein array (RPPA). The selection of tumors was made so that the average tumor size of the 6 specimens was close to that of the whole group. RPPA analysis was performed as follows: tumors were sectioned and placed on immunohistochemistry slides. Stromal and inflammatory content was macrodissected to purify for tumors cells. Protein lysates were prepared and protein content was quantified. […] Reverse phase protein array (RPPA) data were analyzed using one-way ANOVA to detect significant differences between the treatment groups and the vehicle group. […] Total ERK levels were increased in the single agent groups only, no differences were measured in the other groups or in the phosphorylated ERK analysis. […]

Take `CCCCCOC(=O)Nc1nc(=O)n([C@@H]2O[C@H](C)[C@@H](O)[C@H]2O)cc1F` [Capecitabine]: in assay [1], the “response of the HBCx-34 PDX model” value is given as “responder”.
With `CC(=O)O[C@@]12CO[C@@H]1C[C@H](O)[C@@]1(C)C(=O)[C@H](O)C3=C(C)[C@@H](OC(=O)[C@H](O)[C@@H](NC(=O)OC(C)(C)C)c4ccccc4)C[C@@](O)([C@@H](OC(=O)c4ccccc4)[C@H]21)C3(C)C` [Docetaxel], the “response of the HBCx-34 PDX model” value in assay [1] is given as “responder”.
`CC/C(=C(\c1ccccc1)c1ccc(OCCN(C)C)cc1)c1ccccc1` [Tamoxifen]: the “response of the HBCx-34 PDX model” value in assay [1] is recorded as “responder”. In addition, the “% TGI (tumor growth inhibition)” value in assay [2] (D25, relative to the control group, MCLA-128 25 mg/kg i.p., Faslodex 5.0 mg/animal, Tamoxifen 1 mg/animal) stood at 69%. Further, the median tumor volume in assay [2] (D25, MCLA-128 25 mg/kg i.p., Faslodex 5.0 mg/animal s.c. qwk×5, Tamoxifen 1 mg/animal s.c. qod×15) worked out at 184 mm3. Further, in assay [2] (D25 tumor volumes, Mann-Whitney test), the “P relative to the control group” value is recorded as under 0.001. In addition, the “anti-tumor efficacy / survival benefit (in words)” value in assay [2] (MCF-7 nude mouse xenograft model) is on record as “significantly reduced tumor growth”. Moreover, the “Total HER2 levels (RPPA)” value in assay [3] is “significantly increased”.
